Results from a melting point compilation (Tetko et al.; mined from patent text by program, amines drawn as free bases though some values may be those of a salt).

melting point	SMILES
210 to 215 °C	O=P(O)(O)CSc1nc2cc(Cl)c(C#Cc3ccccc3)cc2[nH]1
100 to 102 °C	C=CCOc1cc(F)c(C#N)c(OC(C(=O)OC)c2ccccc2C)c1 (racemic)
106 to 108 °C	NC(=O)c1ccc(CCCNCC(O)c2ccccc2)cc1 (centres undefined)
157 to 158 °C	COc1cccc(-n2c(=O)n(OCc3ccccc3)c(=O)c3cc(F)c(F)cc32)c1
152 to 153 °C	Cc1nc(-n2cnn(Cc3ccc(F)cc3)c2=O)sc1C(=O)NCc1ncco1
168 to 170 °C	CC#CN(NC(=O)c1ccc(Cl)c(S(N)(=O)=O)c1)c1ccccc1
154 °C	COc1cccc(-c2ccc3c(C(=O)Nc4cccnc4)c(OC)ccc3c2)c1
91 to 93 °C	O=C(O)COc1c(F)cc(SCCNS(=O)(=O)c2ccccc2)cc1F
94 to 96.5 °C	CCC(C(=O)N(C)C)n1cc(Cl)c(-c2ccccc2)n1 (centres undefined)
64 °C	Nc1cc(CNc2ccccc2C(=O)Nc2cccc(C(F)(F)F)c2)ccn1
210 to 211 °C	Cc1ccccc1C(=NC(=Nc1ccccc1)C1(C)CCCCC1)Nc1ccc(F)cc1
148 to 149 °C	O=C(CCn1ccnc1)N1c2ccccc2S(=O)c2ccc(Cl)cc21 (centres undefined)
198 to 200 °C	COCc1cc(-c2ncc3[nH]c4ccc(Cl)c(Cc5ccc(Cl)cc5)c4c3c2COC)no1
109 to 110 °C	COC(=O)N(CCO)c1ccc(OCc2nc3ccccc3s2)cc1C
144 to 145 °C	CC(=O)c1cccc([C@H]2C[C@H]2NC(=O)Nc2ccc(Cl)cn2)c1 (racemic)
88.5 to 90 °C	C=CCOc1ccc(C(=O)C=Cc2cc(OC)cc(OC)c2)cc1
116 to 117 °C	CCSc1nc(-c2ccco2)c2ncn(Cc3ccc(OC)cc3)c2n1

melting point	SMILES
134 to 136 °C	CNc1cccc(-c2ccnc3c(C(=O)c4ccccc4)cnn23)c1
153 to 154 °C	COc1cccc(-c2cnn3c(-c4cccc(NC(=O)CC(C)C)c4)ccnc23)c1
163 °C	Cc1nc2c3c(ccc2[nH]1)[C@@H](O)[C@H](O)[C@@H](c1ccccc1)O3
87 to 88 °C	O=C(O)CCCCCOc1cc(-c2ccccc2)cc(-c2ccccc2)n1
226 to 228 °C	COC(=O)c1ccc(Cc2c(C)[nH]c(C)cc2=O)cc1
222 to 227 °C	COc1cc(C(=O)O)cc2c1C(=O)c1ccccc1CC2
113 to 115 °C	CCCc1c(OCCCOc2ccc3c(=O)cc(C(=O)OC)oc3c2CCC)ccc(C(C)=O)c1O
168 to 170 °C	C=CCOc1ccc(-c2ccc(O)cc2)cc1
87 to 89 °C	CCC(NC(=O)c1sc(NC(=O)c2ccccc2)nc1C)c1ccccc1 (centres undefined)
98 to 101 °C	COC(=O)c1ccc2nc(C)ccc2c1
162 to 164 °C	COC(=O)CC1=C(C)/C(=C/c2ccc(S(C)(=O)=O)cc2)c2ccc(F)cc21
105 to 108 °C	Cc1c(SCCCN2CCNCC2)ccnc1CNc1cnc2ccccc2c1
163 to 164 °C	CC(C)(C)OC(=O)N[C@@H](Cc1ccc(-c2ccccc2)cc1)C(=O)NCCC#N
106 to 108 °C	COCCOC(=O)C1=C(O)c2ccccc2S(=O)(=O)N1C
218 to 219 °C	NC(=O)Cn1ncc2c1CN=C(c1ccccc1)c1cc(Cl)ccc1-2
81 to 82 °C	O=C(COc1cccnc1)c1ccccc1
98 to 104 °C	C=C(C)C(=O)OCCCCCCOc1ccc(C(=O)Oc2ccc3ccc(=O)oc3c2)cc1

The next lines start with the compound.

SMILES	melting point
Cc1cc(Br)c2c(c1)C(=O)C(=O)N2CCN(C(C)C)C(C)C	94 to 97 °C
CN(C)Cc1cccc(Cc2cnc(N[N+](=O)[O-])[nH]c2=O)c1	232 to 235 °C
CCOC(=O)CCc1cn(Cc2ccc(OCc3ccccc3)cc2)nc1OCc1ccc(OCc2ccccc2)cc1	98 to 99 °C
CSc1c(N)cnc2ccccc12	96 to 98 °C
Nc1c(Br)cc2c(c1Br)C(C(Cl)(Cl)Cl)OC(C(Cl)(Cl)Cl)O2 (centres undefined)	158 to 159 °C
COc1ccc(C2(C)CCc3cc(OC)ccc3C2(O)C#CCCCCOC2CCCCO2)cc1 (centres undefined)	80 to 82 °C
O=S(=O)(Nc1ccc(C2=NC3(O)c4ccc(Cl)cc4CC3S2)cc1)c1ccc(Cl)cc1 (centres undefined)	116 °C
CC1=C(CO)C(=O)OC(C(C)C2CCC3C4CC5OC56C(O)C=CC(=O)C6(C)C4CCC23C)C1 (centres undefined)	227 to 228 °C
Cc1cc(CC2(Cc3ccnc(C)c3)c3ccccc3-c3ncccc32)ccn1	177 to 179 °C
O=S1(=O)c2cccc3cccc(c23)N1CCCN1CCN(c2ccc(O)cc2)CC1	185 °C
Cc1ccc(S(=O)(=O)NCCCCOc2ccc(C#N)cc2)cc1	107 to 108 °C
CC[C@H](C)[C@@H]1NC(=S)c2ccccc2/C1=C/C(=O)OC	193 to 196 °C
CC(C)(CO)NS(=O)(=O)c1cc(NC(=O)c2cnn3c(C(F)(F)F)cc(-c4ccc(C(F)(F)F)c(Cl)c4)nc23)c(Cl)s1	254 °C
COC(=O)c1ccc(C=CC(=O)N2CCc3c([nH]c4ccccc34)C2c2ccc3c(c2)OCO3)cc1 (centres undefined)	211 °C
O=C(O)CCN1CCN2c3ccccc3Cc3ccccc3C2C1 (centres undefined)	195 to 197 °C
CS(=O)(=O)C(=C1CN(C(c2ccccc2)c2ccccc2)C1)c1ccccc1Cl	204 °C
CC(NC(=O)N1CCc2cc(S(=O)(=O)N3CCN(c4cccc(Cl)c4)CC3)ccc21)C(=O)O (centres undefined)	175 to 176 °C
O=C(OCC12CCCN(CCC1)C2)c1c[nH]c2ccccc12	207 to 209 °C
O=C(O)C(Cc1cccnc1)C(=O)O	128 to 129 °C
CCOc1csc2c(=O)c(S(C)=O)cn(C)c12 (centres undefined)	210 to 214 °C
Cc1ccc(-c2nc3cc(N=C=S)ccc3o2)o1	110 to 121 °C
O=C1c2ccccc2C(O)(C(F)(F)F)c2ccccc21	153 to 155 °C

SMILES	melting point
CCCN(CCC)Cc1ccccc1P(=NC(=O)OCC)(c1ccccc1)c1ccccc1	102 to 104 °C
CN(C)CCCCN1CCOc2cc3ncc(C#N)c(Nc4ccc(F)c(Cl)c4)c3cc21	105 °C
CNn1c(N(C)C)nn(C(=O)NC2CCCC2)c1=O	137 °C
N#CCc1cnn2ccc3c(c12)CCO3	165 to 166 °C
CSc1cc2c(cc1C(F)(F)F)N(C(=O)Nc1cccc(C(=O)CCCN(C)C)c1)CC2	178 to 180 °C
c1cc(OC[C@H]2CO2)c2cccnc2c1	79 to 81 °C
CSc1nn(C(=O)NC(C)c2ccc(Cl)c(Cl)c2)c(=O)n1N (centres undefined)	132 °C
CCc1nnc2c3c(c(Cl)nn12)CCCC3	93 to 94 °C
O=C(O)COc1cc2c(c(Cl)c1Cl)C(=O)C(c1ccccc1)(C1CCCC1)C2 (centres undefined)	184 to 186 °C
Cc1cc(O)c(C)c2c1NCC2	155 to 158 °C
CN(Cc1ccccc1)Cc1cnc(NC(=O)C(Cc2ccc(F)cc2)c2ccc(S(C)(=O)=O)cc2)cn1 (centres undefined)	99 to 100 °C
CCOC(=O)c1ccc(S(=O)(=O)C(Br)(Br)Br)cc1	134 to 136 °C
NS(=O)(=O)c1ccc(-n2nc(CNC(=O)Nc3cccc(C(F)(F)F)c3)cc2-c2ccccc2)cc1	185 to 190 °C
CCC(C=CC(C)C1CCC2C3CCC4=CC(=O)CCC4(C)C3CCC12C)C(C)C (centres undefined)	121 to 123 °C
N=C(NC(=O)c1ccc2ccccc2c1)c1ccc(N2CC(CN3CCN(CCC(=O)O)CC3)OC2=O)cc1 (centres undefined)	80 to 83 °C
COc1cc(-n2c(C#N)c(C#N)n(C(F)F)c2=O)c(F)cc1Br	150 °C
CC(C)(C)OC(=O)N1C(Cc2ccccc2)SC[C@H]1C(=O)O (some centres undefined)	156 °C
NC(N)=Nc1nc(-c2cccc(CCl)n2)cs1	260 to 261 °C
COC(=O)C1(C(=O)O)CCc2cc(C3CCCCCC3)ccc21 (centres undefined)	140 to 141 °C
CCc1nc2c(N)nc3ccccc3c2n1CC(C)C	233 to 234 °C
OC(c1ccccc1)(c1ccc(Cl)cc1)c1nccn1Cc1ccccc1 (centres undefined)	174 to 175 °C
O=C(Nc1c([N+](=O)[O-])ccc2c3c(oc12)CCCC3)c1c(Cl)cccc1Cl	246 to 248 °C

SMILES	melting point
C#Cc1ccc2c(c1)C(c1ccccn1)=NC(C)c1c(C(=O)OCC)ncn1-2 (centres undefined)	235 to 237 °C
CC12C=CCC1C1CC=C3CC(O)CCC3(CO)C1CC2 (centres undefined)	169 to 171 °C
Cc1c(C)c(N2CCN(c3ccc(CN(C)C)cc3)CC2)c(C)c2c1OC(C)(C)C2	134 to 138 °C
O=c1c2c[nH]c3c(c-2nn1-c1ccc(Cl)cc1)CCC3	> 350 °C
NC(=O)c1cn(C(CO)CCc2cccc(C(F)(F)F)c2)cn1 (centres undefined)	103 to 106 °C
COc1ccc(S(=O)(=O)c2nccn2C(C)C)cc1	84 to 86 °C
CC1(C)CN(C2CC3(C)C(CCC4C5CCC(C#N)C5(C)CCC43)CC2O)CCO1 (centres undefined)	170 to 173 °C
Cc1cc(Br)cc(-c2ccc3c(c2)C(C)(C)OC(=O)N3)c1	231 to 233 °C
N#Cc1ccc2c(c1)S(=O)(=O)NCN2C1CC1	259 to 261 °C
O=C(C=Cc1ccc(OC(F)(F)F)cc1)N1CCc2c([nH]c3ccccc23)C1c1ccc2c(c1)OCO2 (centres undefined)	203 to 205 °C
CN1C(=O)CC[C@]2(C)c3ccc(Sc4ccc5c([N+](=O)[O-])cccc5n4)cc3CC[C@@H]12	149 to 154 °C
CNc1ccc(C=CC(=O)c2ccc(NC)cc2)cc1	150 to 151 °C
CCN1CCN(Cc2cc(-c3ccc4c(Nc5ccc(Cl)cc5Cl)c(C#N)cnc4c3)cs2)CC1	182 to 184 °C
CCOC(=O)C1=C[C@@H](OC(CC)CC)[C@H](NC(C)=O)[C@@H](N=[N+]=[N-])C1	115 to 117 °C
Cn1cnc(COc2nc3c(nnn3-c3ccccc3)c3ccccc23)n1	189 to 190 °C
CCOc1cccc2cc(C(=O)C34CC5CC(CC(C5)C3)C4)oc12	84 to 86 °C
Cc1ccnc(C(=O)c2[nH]c3cc(Cl)c(F)cc3c2CC(=O)O)c1	220 °C
C=CCn1c(=O)c2c(nc(/C=C/c3cc(OC)c(OC)c(OC)c3)n2C)n(CC=C)c1=O	189 to 191 °C
CCC(CC)c1ccc(Cl)c2nc(Cl)n(C)c12	94 to 95 °C
COc1cc2c(c3c1OC(C)(C)C3)C(c1cccc(OCC(N)=O)c1)=NC(C)(C)C2	172 to 174 °C
COc1cc2c(cc1OC)CC(C#N)=C2	140 to 141 °C
